Measurements: US7772180B2, “Hepatitis C virus inhibitors” (Bristol-Myers Squibb Company, priority 2006, dated 2010)
Where two headings read alike, the source gives them in different places.

Tests used:
[1] = test system: HCV replicon (strain 1b) in HUH-7 cells; experiment: HCV replicon FRET assay; format: cell-based, Hepatitis C virus
[2] = target: T1, HCV NS3/4A protease complex, BMS strain (UniProt P27958, species not given/STRAIN_BMS); experiment: FRET peptide assay to monitor HCV NS3/4A proteolytic activity (BMS strain); format: biochemical, Hepatitis C virus (genotype 1a); conditions: read-out: HCV Protease (IC50), NS3/4A BMS strain
T1 construct: other: NS3/4A BMS strain; activity range class; numeric values, unit not given; said of H77 and J4L6S; fused on or other part: A three-lysine solubilising tail at the C-terminus of NS4A; A His tag is implied by the pET21b vector and Ni-NTA purification; Both are printed for the H77 and J4L6S constructs and apply to BMS by inference
How it was run: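 Inhibition measured by real-time fluorescence increase as the protease cleaves RET S1 FRET depsipeptide (2 μM final). Enzyme: >90% pure BMS-strain (1a) NS3/4A at 2-3 nM final, or 300 pM with 50 μg/ml BSA for potent compounds. Buffer: 50 mM HEPES pH 7.5, 0.15 M NaCl, 0.1% Triton, 15% glycerol, 10 mM βME.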

[3] = read-out: HCV Pro Replicon (EC50), HCV replicon cell assay, activity range class
[4] = Hepatitis C virus, Huh-7, read-out: HCV Pro Replicon (EC50), HCV replicon cell assay, numeric values, unit inferred
[5] = Hepatitis C virus, Huh-7, read-out: HCV Pro Replicon (EC50), HCV replicon cell assay, activity range class

T1 sequence (P27958 1027-1657, change not shown, one chain of several): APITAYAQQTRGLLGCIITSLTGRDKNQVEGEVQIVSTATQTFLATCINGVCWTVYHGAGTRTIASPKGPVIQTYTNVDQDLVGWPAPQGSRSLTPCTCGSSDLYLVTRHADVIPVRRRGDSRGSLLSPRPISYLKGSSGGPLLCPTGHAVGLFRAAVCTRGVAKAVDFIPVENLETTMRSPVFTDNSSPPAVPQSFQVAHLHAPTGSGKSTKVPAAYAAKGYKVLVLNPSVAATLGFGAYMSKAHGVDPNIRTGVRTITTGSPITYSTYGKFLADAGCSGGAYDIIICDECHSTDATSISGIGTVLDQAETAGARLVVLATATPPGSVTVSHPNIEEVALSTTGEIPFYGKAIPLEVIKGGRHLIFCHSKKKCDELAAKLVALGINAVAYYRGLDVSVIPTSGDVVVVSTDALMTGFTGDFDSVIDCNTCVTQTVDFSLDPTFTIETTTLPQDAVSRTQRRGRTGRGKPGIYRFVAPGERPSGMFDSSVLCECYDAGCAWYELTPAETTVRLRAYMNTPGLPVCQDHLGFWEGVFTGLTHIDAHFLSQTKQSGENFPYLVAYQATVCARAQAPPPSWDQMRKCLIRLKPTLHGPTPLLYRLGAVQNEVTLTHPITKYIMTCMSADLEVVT

SMILES | EC50 [1, 3] | IC50 ([2]; activity range class) | EC50 [1, 4] | IC50 ([2]; numeric values, unit inferred) | EC50 [1, 5]
C=C[C@@H]1C[C@]1(NC(=O)[C@@H]1C[C@@H](Oc2ncc(OC)c3ccc(Cl)cc23)CN1C(=O)C(Nc1cc(C)cc(C)n1)C(C)(C)C)C(=O)NS(=O)(=O)C1CC1 (single isomer, unassigned) [22 first isomer] | 3 to 100 nM | 0.6 to 20 nM | – | – | –
C=CC1CC1(NC(=O)C1CC(Oc2ncc(OC)c3ccc(Cl)cc23)CN1C(=O)C(Nc1cccc(F)c1)C(C)(C)C)C(=O)NS(=O)(=O)C1CC1 (centres unmarked) [Compound 200B] | – | – | 195 nM | 160 nM | –
C=C[C@@H]1C[C@]1(NC(=O)[C@@H]1C[C@@H](Oc2ncc(OC)c3ccc(Cl)cc23)CN1C(=O)C(Nc1nsnc1OCC)C(C)(C)C)C(=O)NS(=O)(=O)C1CC1 (some centres unmarked) [Compound 243] | – | 0.6 to 20 nM | – | – | 3 to 100 nM
C=C[C@@H]1C[C@]1(NC(=O)[C@@H]1C[C@@H](Oc2ncc(OC)c3ccc(Cl)cc23)CN1C(=O)[C@@H](Nc1ccccc1F)C(C)(C)C)C(=O)NS(=O)(=O)C1CC1 [234 first isomer, N-(2-fluorophenyl)-3-methyl-L-valyl-(4R)-4-[(7-chloro-4-methoxy-1-isoquinolinyl)oxy]-N-((1R,2S)-1-{[(cyclopropylsulfonyl)amino]carbonyl}-2-vinylcyclopropyl)-L-prolinamide] | – | 20 to 200 nM | – | – | 100 to 1000 nM
C=C[C@@H]1C[C@]1(NC(=O)[C@@H]1C[C@@H](Oc2ncc(OC)c3ccc(Cl)cc23)CN1C(=O)[C@H](Nc1ccc(S(N)(=O)=O)cc1)C(C)(C)C)C(=O)NS(=O)(=O)C1CC1 [Compound 215B, 3-methyl-N-(4-sulfamoylphenyl)-D-valyl-(4R)-4-((7-chloro-4-methoxy-1-isoquinolinyl)oxy)-N-((1R,2S)-1-((cyclopropylsulfonyl)carbamoyl)-2-vinylcyclopropyl)-L-prolinamide] | – | – | 5490 nM | 830 nM | –
C=C[C@@H]1C[C@]1(NC(=O)[C@@H]1C[C@@H](Oc2nccc3cc(OC)ccc23)CN1C(=O)C(Nc1ccccn1)C(C)C)C(=O)NS(=O)(=O)C1CC1 (single isomer, unassigned) [Compound 7] | – | 20 to 200 nM | – | – | 3 to 100 nM
C=C[C@@H]1C[C@]1(NC(=O)[C@@H]1C[C@@H](Oc2ncc(OC)c3ccc(Cl)cc23)CN1C(=O)[C@@H](Nc1ccc(C(N)=O)cc1)C(C)(C)C)C(=O)NS(=O)(=O)C1CC1 [226 first isomer, N-(4-carbamoylphenyl)-3-methyl-L-valyl-(4R)-4-((7-chloro-4-methoxy-1-isoquinolinyl)oxy)-N-((1R,2S)-1-((cyclopropylsulfonyl)carbamoyl)-2-vinylcyclopropyl)-L-prolinamide] | – | 0.6 to 20 nM | – | – | 3 to 100 nM
C=C[C@@H]1C[C@]1(NC(=O)[C@@H]1C[C@@H](Oc2ncc(OC)c3ccc(Cl)cc23)CN1C(=O)C(Nc1cncc(C(F)(F)F)c1)C(C)(C)C)C(=O)NS(=O)(=O)C1CC1 (single isomer, unassigned) [27 second isomer] | – | 20 to 200 nM | – | – | 3 to 100 nM
C=C[C@@H]1C[C@]1(NC(=O)[C@@H]1C[C@@H](Oc2nc3c(c4cc(OC)ccc24)OCCN3C)CN1C(=O)[C@H](Nc1ccc(F)c(F)c1)C(C)(C)C)C(=O)NS(=O)(=O)C1CC1 [235 second isomer, N-(3,4-difluorophenyl)-3-methyl-D-valyl-(4R)—N-((1R,2S)-1-((cyclopropylsulfonyl)carbamoyl)-2-vinylcyclopropyl)-4-((9-methoxy-4-methyl-3,4-dihydro-2H-[1,4]oxazino[3,2-c]isoquinolin-6-yl)oxy)-L-prolinamide] | – | 0.6 to 20 nM | – | – | 3 to 100 nM
C=CCCCCCC(Nc1ccc(OC)nc1)C(=O)N1C[C@H](Oc2ncc(OC)c3ccc(Cl)cc23)C[C@H]1C(=O)N[C@]1(C(=O)NS(=O)(=O)C2CC2)C[C@H]1C=C (some centres unmarked) [Compound 410] | 3 to 100 nM | > 200 nM | – | – | –
